Tests used:
Conditions in all cases: scale 0 to 100
eastern black nightshade = assay: Test G preemergence test; assay type: in vivo, Solanum ptycanthum
goosegrass = assay: Test G preemergence test; assay type: in vivo, Eleusine indica
lambsquarters = assay: Test G preemergence test; assay type: in vivo, Chenopodium album
yellow foxtail = assay: Test G preemergence test; assay type: in vivo, Pennisetum glaucum
blackgrass = assay: Test D preemergence test; assay type: in vivo, Alopecurus myosuroides
Excerpt: (§1) Seeds of plant species selected from annual bluegrass (Poa annua), blackgrass (Alopecurus myosuroides), downy bromegrass (Bromus tectorum), field violet (Viola arvensis), green foxtail (Setaria viridis), Italian ryegrass (Lolium multiflorum), littleseed canarygrass (Phalaris minor), spring wheat (Triticum aestivum), wild oat (Avena fatua), […]), winter barley (Hordeum vulgare), and winter wheat (Triticum aestivum) were planted and treated preemergence with test chemicals formulated in a non-phytotoxic solvent mixture which included a surfactant. […] A dash (-) response means no test result.

soybean = assay: Test G preemergence test; assay type: in vivo, Glycine max
woolly cupgrass = assay: Test G preemergence test; assay type: in vivo, Eriochloa villosa
yellow nutsedge = assay: Test G preemergence test; assay type: in vivo, Cyperus esculentus
annual bluegrass = assay: Test D preemergence test; assay type: in vivo, Poa annua
Excerpt: as §1

wild oat = assay: Test D preemergence test; assay type: in vivo, Avena fatua
Excerpt: as §1

field violet = assay: Test D preemergence test; assay type: in vivo, Viola arvensis
Excerpt: as §1

broadleaf signalgrass = assay: Test G preemergence test; assay type: in vivo, Brachiaria platyphylla
corn = assay: Test G preemergence test; assay type: in vivo, Zea mays
sorghum = assay: Test G preemergence test; assay type: in vivo, Sorghum vulgare
tall waterhemp = assay: Test G preemergence test; assay type: in vivo, Amaranthus tuberculatos
cotton = assay: Test G preemergence test; assay type: in vivo, Gossypium hirsutum
itchgrass = assay: Test G preemergence test; assay type: in vivo, Rottboellia cochinchinensis
littleseed canarygrass = assay: Test D preemergence test; assay type: in vivo, Phalaris minor
Excerpt: as §1

large crabgrass = assay: Test G preemergence test; assay type: in vivo, Digitaria sanguinalis
winter wheat = assay: Test D preemergence test; assay type: in vivo, Triticum aestivum
Excerpt: as §1

spring wheat = assay: Test D preemergence test; assay type: in vivo, Triticum aestivum
Excerpt: as §1

Italian ryegrass = assay: Test D preemergence test; assay type: in vivo, Lolium multiflorum
Excerpt: as §1

Cn1nc(C(F)(F)F)c(C(Cl)S(=O)(=O)c2cccc[n+]2[O-])c1Cl (stereo not shown) [Compound 12]
75: Plant response rating, Signalgrass (broadleaf signalgrass; 125 g ai/ha) | Plant response rating, Signalgrass (broadleaf signalgrass; 250 g ai/ha) | Plant response rating, Canarygrass (littleseed canarygrass; 125 g ai/ha)
100: Plant response rating, Goosegrass (goosegrass; 31 g ai/ha) | Plant response rating, Goosegrass (goosegrass; 62 g ai/ha) | Plant response rating, Goosegrass (goosegrass; 125 g ai/ha) | Plant response rating, Goosegrass (goosegrass; 250 g ai/ha) | Plant response rating, Foxtail, Yellow (yellow foxtail; 62 g ai/ha) | Plant response rating, Foxtail, Yellow (yellow foxtail; 125 g ai/ha) | Plant response rating, Foxtail, Yellow (yellow foxtail; 250 g ai/ha) | Plant response rating, Blackgrass (blackgrass; 125 g ai/ha) | Plant response rating, Blackgrass (blackgrass; 250 g ai/ha) | Plant response rating, Bluegrass (annual bluegrass; 62 g ai/ha) | Plant response rating, Bluegrass (annual bluegrass; 125 g ai/ha) | Plant response rating, Bluegrass (annual bluegrass; 250 g ai/ha) | Plant response rating, Sorghum (sorghum; 250 g ai/ha) | Plant response rating, Waterhemp (tall waterhemp; 250 g ai/ha) | Plant response rating, Canarygrass (littleseed canarygrass; 250 g ai/ha) | Plant response rating, Crabgrass, Large (large crabgrass; 250 g ai/ha) | Plant response rating, Ryegrass, Italian (Italian ryegrass; 250 g ai/ha)
65: Plant response rating, Cupgrass, Woolly (woolly cupgrass; 125 g ai/ha)
20: Plant response rating, Nutsedge, Yellow (yellow nutsedge; 250 g ai/ha)
60: Plant response rating, Bluegrass (annual bluegrass; 31 g ai/ha) | Plant response rating, Sorghum (sorghum; 125 g ai/ha) | Plant response rating, Crabgrass, Large (large crabgrass; 62 g ai/ha)
95: Plant response rating, Foxtail, Yellow (yellow foxtail; 31 g ai/ha) | Plant response rating, Waterhemp (tall waterhemp; 125 g ai/ha) | Plant response rating, Crabgrass, Large (large crabgrass; 125 g ai/ha)
0: Plant response rating, Nightshade (eastern black nightshade; 31 g ai/ha) | Plant response rating, Nightshade (eastern black nightshade; 62 g ai/ha) | Plant response rating, Nightshade (eastern black nightshade; 125 g ai/ha) | Plant response rating, Lambsquarters (lambsquarters; 31 g ai/ha) | Plant response rating, Lambsquarters (lambsquarters; 62 g ai/ha) | Plant response rating, Lambsquarters (lambsquarters; 125 g ai/ha) | Plant response rating, Blackgrass (blackgrass; 31 g ai/ha) | Plant response rating, Blackgrass (blackgrass; 62 g ai/ha) | Plant response rating, Soybean (soybean; 31 g ai/ha) | Plant response rating, Soybean (soybean; 62 g ai/ha) | Plant response rating, Soybean (soybean; 125 g ai/ha) | Plant response rating, Soybean (soybean; 250 g ai/ha) | Plant response rating, Cupgrass, Woolly (woolly cupgrass; 31 g ai/ha) | Plant response rating, Cupgrass, Woolly (woolly cupgrass; 62 g ai/ha) | Plant response rating, Nutsedge, Yellow (yellow nutsedge; 31 g ai/ha) | Plant response rating, Nutsedge, Yellow (yellow nutsedge; 62 g ai/ha) | Plant response rating, Nutsedge, Yellow (yellow nutsedge; 125 g ai/ha) | Plant response rating, Oat, Wild (wild oat; 31 g ai/ha) | Plant response rating, Oat, Wild (wild oat; 62 g ai/ha) | Plant response rating, Oat, Wild (wild oat; 125 g ai/ha) | Plant response rating, Oat, Wild (wild oat; 250 g ai/ha) | Plant response rating, Field Violet (field violet; 31 g ai/ha) | Plant response rating, Field Violet (field violet; 62 g ai/ha) | Plant response rating, Field Violet (field violet; 125 g ai/ha) | Plant response rating, Signalgrass (broadleaf signalgrass; 31 g ai/ha) | Plant response rating, Signalgrass (broadleaf signalgrass; 62 g ai/ha) | Plant response rating, Corn (corn; 31 g ai/ha) | Plant response rating, Corn (corn; 62 g ai/ha) | Plant response rating, Corn (corn; 125 g ai/ha) | Plant response rating, Corn (corn; 250 g ai/ha) | Plant response rating, Sorghum (sorghum; 31 g ai/ha) | Plant response rating, Sorghum (sorghum; 62 g ai/ha) | Plant response rating, Waterhemp (tall waterhemp; 31 g ai/ha) | Plant response rating, Cotton (cotton; 31 g ai/ha) | Plant response rating, Cotton (cotton; 62 g ai/ha) | Plant response rating, Cotton (cotton; 125 g ai/ha) | Plant response rating, Cotton (cotton; 250 g ai/ha) | Plant response rating, Itchgrass (itchgrass; 31 g ai/ha) | Plant response rating, Itchgrass (itchgrass; 62 g ai/ha) | Plant response rating, Itchgrass (itchgrass; 125 g ai/ha) | Plant response rating, Itchgrass (itchgrass; 250 g ai/ha) | Plant response rating, Canarygrass (littleseed canarygrass; 31 g ai/ha) | Plant response rating, Canarygrass (littleseed canarygrass; 62 g ai/ha) | Plant response rating, Wheat, Winter (winter wheat; 31 g ai/ha) | Plant response rating, Wheat, Winter (winter wheat; 62 g ai/ha) | Plant response rating, Wheat, Winter (winter wheat; 125 g ai/ha) | Plant response rating, Wheat, Winter (winter wheat; 250 g ai/ha) | Plant response rating, Wheat, Spring (spring wheat; 31 g ai/ha) | Plant response rating, Wheat, Spring (spring wheat; 62 g ai/ha) | Plant response rating, Wheat, Spring (spring wheat; 125 g ai/ha) | Plant response rating, Wheat, Spring (spring wheat; 250 g ai/ha) | Plant response rating, Ryegrass, Italian (Italian ryegrass; 31 g ai/ha) | Plant response rating, Ryegrass, Italian (Italian ryegrass; 62 g ai/ha)
40: Plant response rating, Field Violet (field violet; 250 g ai/ha) | Plant response rating, Waterhemp (tall waterhemp; 62 g ai/ha)
70: Plant response rating, Nightshade (eastern black nightshade; 250 g ai/ha) | Plant response rating, Cupgrass, Woolly (woolly cupgrass; 250 g ai/ha) | Plant response rating, Ryegrass, Italian (Italian ryegrass; 125 g ai/ha)
15: Plant response rating, Lambsquarters (lambsquarters; 250 g ai/ha) | Plant response rating, Crabgrass, Large (large crabgrass; 31 g ai/ha)
